Results reported in US11337984B2, “Methods for treating, diagnosing and prognosing a haematological malignancy” (Institut de Recerca Contra La Leucèmia Josep Carreras, priority 2014, dated 2022).

System: primary AML blasts
Test: Cell viability of primary patient AML samples (bulk and CD34+CD38- primitive population)
Format: cell-based, human
Settings: 0.1, 1 and 10 μM, 24 and 72 h
Procedure: FIG. 3. […] The primitive AML population was identified within the AML bulk population based on their positivity to CD34 and negativity to CD38. […] Cell number was calculated by volumetric count. 11 primary AML samples were analyzed in triplicates. Each symbol represents a specific AML patient.
FIG. 4. […] The primitive AML population was identified within the AML bulk population based on their positivity to CD34 and negativity to CD38. […] Cell number was calculated by volumetric count. 11 primary AML samples were analyzed in triplicates. Each symbol represents a specific AML patient.
Primary AML patient samples were treated with subtype 1 and 2 HTR antagonists for 24 and 72 h at 0.1, 1 and 10 μM. Five hundred thousand cells per mL were seeded in IMDM supplemented with insulin, transferrin, bovine serum albumin, IL3 and non-essential aminoacids. Cell viability was measured by flow cytometry as described above.
Like the normal haematopoietic system, AML is thought to be organized as a hierarchy of distinct and functionally heterogeneous classes of cells that is ultimately sustained by a small number of leukaemic stem cells (LSCs) with enhanced self-renewal capacity, impaired differentiation ability, and increase drug resistance (Bonnet and Dick Nat Med. 1997; 3(7):730-7). The LSC population is found enriched inside the CD34+CD38− AML blast population.

CN1CCc2cccc3c2[C@H]1Cc1ccc(O)c(O)c1-3 [Apomorphine, (6aR)-6-methyl-5,6,6a,7-tetrahydro-4H-dibenzo[de,g]quinoline-10,11-diol]
cell death on primary AML blasts (bulk population): induced cell death on primary AML blasts in a dose-response fashion
cell viability of the most primitive LSC-enriched blast population (CD34+CD38- population): reduced cell viability
